Series [1] relates to cultured P10 islets. Description: qRT-PCR of mRNA in cultured P10 mouse islets exposed to glucokinase activator with or without FK506. The class given is cell-based. Here is the method: (§1) Quantitative Real-time RT-PCR. Mouse islets were isolated by standard collagenase pancreatic perfusion as previously described (Heit et al. (2006a), supra). Total islet mRNA was then isolated using the RNeasy Microkit (QIAGEN) according to the manufacturer's instructions and RNA amount and purity were assessed by Nanodrop spectrophotometry. Any remaining contaminant DNA was removed by treating samples with 1 unit of RNAse-free DNAse (Fermentas). Next, cDNA was prepared from 750 ng of total islet RNA using the RETROscript kit (Ambion) and analyzed by quantitative real-time PCR (QPCR) using TaqMan Universal PCR Master Mix (ABI) and the ABI Prism 7500 detection system. For culture studies, islets harvested from mice of the indicated genotype were placed in standard media (RPMI 1640 with 4.5 mM glucose containing 10% FBS and 1% pen/strep) at 37° C. and 5% CO2. For some experiments islets were maintained in media containing vehicle (DMSO), glucokinase activator (GKA) R0-28-1675 (10 μM; Axon Ligands) and/or FK506 (10 μM; LC Laboratories) for 72 hours, with media changes every 24 hours. Additionally, β-cells from MIP-EGFP islets were isolated using fluorescence-activated cell sorting as previously described (Sugiyama, T., et al. (2007). Conserved markers of fetal pancreatic epithelium permit prospective isolation of islet progenitor cells by FACS. Proc. Natl. Acad. Sci. U.S.A 104, 175-180) and processed as above for analysis by QPCR. Each quantitative analysis was performed in triplicate and islets from 3 to 6 mice of each genotype were independently tested. Data are normalized to β-actin and results are expressed as the mean±S.E.M.
A general note: In qPCR the cycle at which signal appears reflects the starting amount.

For series [2] the following is noted: cited from earlier work.
Series [3] concerns human islets. As to the kind of experiment: qRT-PCR of mRNA in cultured human islets exposed to FK506. The class given is cell-based. Conditions: 72 hr. Here is the method: (§2) Quantitative Real-time RT-PCR. Mouse islets were isolated by standard collagenase pancreatic perfusion as previously described (Heit et al. (2006a), supra). Total islet mRNA was then isolated using the RNeasy Microkit (QIAGEN) according to the manufacturer's instructions and RNA amount and purity were assessed by Nanodrop spectrophotometry. Any remaining contaminant DNA was removed by treating samples with 1 unit of RNAse-free DNAse (Fermentas). Next, cDNA was prepared from 750 ng of total islet RNA using the RETROscript kit (Ambion) and analyzed by quantitative real-time PCR (QPCR) using TaqMan Universal PCR Master Mix (ABI) and the ABI Prism 7500 detection system. Human islet studies. Human islet samples were obtained from healthy, non-diabetic organ donors deceased due to acute traumatic or anoxic death and offered by NDR1 (National Diseases Resource Interchange). Islets were isolated by Bottino, R. at the University of Pittsburg, or by Bryant, S, and Thompson A. at the University of Alabama, Birmingham. […] After isolation, islets were shipped directly to our laboratory and were transferred to fresh islet culture medium (RPMI 1640 with 4.5 mM glucose containing 10% FBS and 1% pen/strep). As with mouse islets, islet samples were split and treated with either vehicle (DMSO) or FK506 ([…], LC laboratories) for 72 hours, with medium changes every 24 hours. Islets were then handpicked with dithizone staining and aliquots of 1000 IEQ were spun down and snap frozen for mRNA isolation or crosslinked as described above for ChIP studies. BrdU analysis was performed on the donor batch by treating islets with 50 uM BrdU and chasing for 24 hrs. Afterwards, islets were placed in 2% agarose and processed within paraffin blocks as described above. Islets were immunostained for insulin and BrdU and β-cell proliferation rate was determined by quantifying the percentage of insulin+ and BrdU^+ cells. A minimum of 50 islets and over 2000 β-cells were scored per condition.

Series [4] deals with NFATc1. As to the kind of experiment: ChIP of NFATc1 on isolated human islets. Also on record: NFATc1 association at CCNA2, CCND2 and FOXM1 promoter sites: dose or concentration left out as unconfirmed. It is filed as cell-based. Here is the method:
Islets from P20 C57/BL6 mice were isolated (as above) and fixed with 1% formaldehyde for 10 minutes at room temperature. Cross-linking was quenched by the addition of 0.125 M glycine and islets were washed in DPBS. ChIPs were then performed using the EZ-Magna ChIP™ G Chromatin Immunoprecipitation Kit (Millipore), following the manufacturer's protocol. Briefly, following cell and nuclear lysis, islets were sonicated to shear chromatin using a Bioruptor Sonicator (Diagenode) at maximum power; set for 15 seconds ON followed by 45 seconds OFF for a total time of 10 minutes. Precleared chromatin from 200-300 islets was used for each ChIP sample with incubation of 1 to 10 ug of the appropriate antibodies overnight at 4° C. Before IP, 1/10 of the extract was saved for use as the input. […] Resulting chromatin was then amplified using the GenomePlex WGA4 Whole Genome Amplification Kit (Sigma) and quantified using nanodrop. Equal amounts of chromatin DNA were then analyzed by quantitative PCR in the ABI Prism 7500 detection system (Applied Biosystems) using Power SYBR Green PCR Master Mix (Applied Biosystems). […]
Human islet studies. […] Islets were immunostained for insulin and BrdU and β-cell proliferation rate was determined by quantifying the percentage of insulin+ and BrdU^+ cells. A minimum of 50 islets and over 2000 β-cells were scored per condition.

Series [5] relates to islets isolated from WT, P20 mice. Description: qRT-PCR of mRNA in cultured neonatal mouse islets exposed to FK506. It is filed as cell-based. Here is the method: as §1
Series [6] relates to cultured human islets. Conditions: cultured human islets exposed to FK506; cited from earlier work.
Series [7] concerns NFATc1. As to the kind of experiment: Chromatin immunoprecipitation (ChIP) of NFATc1 in mouse islets. The class given is cell-based. Here is the method:
Islets from P20 C57/BL6 mice were isolated (as above) and fixed with 1% formaldehyde for 10 minutes at room temperature. Cross-linking was quenched by the addition of 0.125 M glycine and islets were washed in DPBS. ChIPs were then performed using the EZ-Magna ChIP™ G Chromatin Immunoprecipitation Kit (Millipore), following the manufacturer's protocol. Briefly, following cell and nuclear lysis, islets were sonicated to shear chromatin using a Bioruptor Sonicator (Diagenode) at maximum power; set for 15 seconds ON followed by 45 seconds OFF for a total time of 10 minutes. Precleared chromatin from 200-300 islets was used for each ChIP sample with incubation of 1 to 10 ug of the appropriate antibodies overnight at 4° C. Before IP, 1/10 of the extract was saved for use as the input. Antibodies used for IP were mouse monoclonal anti-RNA Polymerase (1 ug, Millipore, 05-623B), rabbit anti-IgG (1 ug, Santa Cruz, sc-2027), and rabbit anti-NFATc1 (5 ug, Imgenex, #IMG-5101A). Resulting chromatin was then amplified using the GenomePlex WGA4 Whole Genome Amplification Kit (Sigma) and quantified using nanodrop. Equal amounts of chromatin DNA were then analyzed by quantitative PCR in the ABI Prism 7500 detection system (Applied Biosystems) using Power SYBR Green PCR Master Mix (Applied Biosystems). […]

The subject of series [8] is neonatal human islets. Description: BrdU incorporation, β-cell proliferation in human islets. It is filed as cell-based. Conditions: islets of donor, FK506 vs vehicle (FIG. 6G-H). Here is the method:
as §2, with “Human” for “Quantitative Real-time RT-PCR. Mouse islets were isolated by standard collagenase pancreatic perfusion as previously described (Heit et al. (2006a), supra). Total islet mRNA was then isolated using the RNeasy Microkit (QIAGEN) according to the manufacturer's instructions and RNA amount and purity were assessed by Nanodrop spectrophotometry. Any remaining contaminant DNA was removed by treating samples with 1 unit of RNAse-free DNAse (Fermentas). Next, cDNA was prepared from 750 ng of total islet RNA using the RETROscript kit (Ambion) and analyzed by quantitative real-time PCR (QPCR) using TaqMan Universal PCR Master Mix (ABI) and the ABI Prism 7500 detection system. Human”

Where [9] appears, read: FK506 10 μM, vs vehicle (FIG. 4A).
[10] abbreviates: WT P20 mouse islets, FK506 10 μM, 72 hr, vs vehicle (FIG. 3F).

Structures are written as SMILES.

In the case of `C=CC[C@@H]1/C=C(\C)C[C@H](C)C[C@H](OC)[C@H]2O[C@@](O)(C(=O)C(=O)N3CCCC[C@H]3C(=O)O[C@H](/C(C)=C/[C@@H]3CC[C@@H](O)[C@H](OC)C3)[C@H](C)[C@@H](O)CC1=O)[C@H](C)C[C@@H]2OC` [FK506, tacrolimus], in series [1] (P10 islets, simultaneous exposure to FK506, 10 μM each, 72 hr (FIG. 7D)), the “GKA induction of CcnA2, CcnD2 and FoxM1 mRNAs” value was “attenuated or blocked”. Also, the “GKA elevation of Insulin 2 (Ins2) levels” value in series [1] (WT P10 islets, GKA+FK506, 10 μM each, 72 hr (FIG. 7B)) is “blunted”. Further, the “GKA induction of NFATc1 mRNA” value in series [1] (WT P10 islets, simultaneous exposure to FK506 and GKA, 10 μM each, 72 hr (FIG. 7A)) was “blocked”. The “GKA increase of ChgA, ChgB, IAPP, and IA2 mRNAs” value in series [1] (neonatal P10 islets, GKA+FK506, 10 μM each, 72 hr (FIG. 7C)) is “eliminated or significantly reduced”. For the same compound, the “incidence of diabetes mellitus” value in series [2] (patients administered calcineurin inhibitors) was “high incidence”. In addition, the “patients developing diabetes mellitus” value in series [2] (patients requiring immunosuppression with calcineurin inhibitors) is 10-30%. In series [3] (vs vehicle (FIG. 6F)), the “CCNA2, CCND2 and FOXM1 mRNA levels” value is “significantly decreased”. In addition, in series [3] (setting [9]), the “islet levels of mRNA encoding HNF4a” value was “unaffected”; the “mRNAs encoding INS, CHGA, CHGB, IAPP, and IA2” value is given as “reduction”. Further, in series [4] (human islets, FK506 10 μM, 24 hr (FIG. 4B)), the “NFATc1 binding at CHGA, CHGB, IAPP, and IA2 sites” value is “consistently reduced”. Also, in series [4] (neonatal human islets), the “NFATc1 association at CCNA2, CCND2 and FOXM1 promoter sites” value was “FK506-sensitive”. Also, in series [5] (setting [10]), the “levels of Hnf4a mRNA” value is “remained unchanged”; the “levels of Ins1, Ins2, ChgA, ChgB, IAPP and IA2 mRNA” value is on record as “significantly reduced”. The “levels of CcnA2, CcnD2 and FoxM1 mRNAs” value in series [5] (neonatal WT mouse islets, FK506, 72 hr, vs vehicle (FIG. 5E)) was “significantly decreased”. In addition, in series [6], the DCG numbers result was “reduced” and the insulin secretion result is “impaired”. Also, the “NFATc1 binding at ChgA, ChgB and IA2 promoters” value in series [7] (WT P20 mouse islets, FK506 24 hr (FIG. 3K)) was “reduced to levels comparable to IgG controls”. In series [7] (WT neonatal mouse islets, FK506 24 hr (FIG. 5J)), the “NFATc1 binding at CcnD2, FoxM1 and CcnA2 promoter sites” value was “consistently reduced NFATc1 binding to background levels”. Further, the “reduction of β-cell BrdU incorporation” value in series [8] was around 3 fold.

Values taken from patent publication US20140030234A1, “METHODS AND COMPOSITIONS FOR MODULATING ISLET BETA CELL DEVELOPMENT” (The Board of Trustees of the Leland Stanford Junior …, priority 2012, published 2014).
